System: A-431
Test: Antiproliferative activity against human A431 cells assessed as inhibition of cell growth incubated for 72 hrs by Cell Titer Glo luminescent cell viability assay
Format: functional, cell-based
Settings: A-431, 72 h

## COc1ccccc1-c1cc2c(N[C@H](CO)c3ccccc3)ncnc2[nH]1
  IC50: 400 nM

Reference: ChEMBL document CHEMBL4715760, “Balancing potency, metabolic stability and permeability in pyrrolopyrimidine-based EGFR inhibitors” (Eur J Med Chem, 2016)
